# Source: US20140200825A1, “Method for predicting whether a cancer patient will not benefit from platinum-based chemotherapy agents” (Biodesix, Inc., priority 2012, published 2014)
# Key:
# Format in all cases: in vivo, human
# [1] = tested on: NSCLC; experiment: Subgroup of NSCLC patients treated with docetaxel, overall survival by VeriStrat group; conditions: between VeriStrat Good and VeriStrat Poor patients, FIG. 6
# Excerpt: FIG. 6 is a Kaplan-Meier plot of overall survival for a subgroup analysis of one of the cohorts studied in Taguchi et al., Mass spectrometry to classify non-small-cell lung cancer patients for clinical outcome after treatment with epidermal growth factor receptor tyrosine kinase inhibitors: a multicohort cross-institutional study.
# Given our previous experience with VeriStrat separation in NSCLC and other cancers, we believe that the difference shown in FIGS. 1-4 and 7A-7B lies principally in the Poor group—i.e., that they probably benefit very little from the combination of gemcitabine+cisplatin (or possibly other combinations of chemotherapy based on a platinum agent), but can get outcomes similar to Good patients if they receive gemcitabine alone, or another non-platinum agent, for example, docetaxel. Our results in a subgroup of NSCLC patients treated with docetaxel show no difference in overall survival between VeriStrat Good and VeriStrat Poor patients (hazard ratio 1.03, p=0.95, see FIG. 6 for a Kaplan-Meier plot)
# [2] = tested on: ovarian cancer; experiment: Ovarian cancer study, carboplatin and paclitaxel after surgery, outcome by VeriStrat group
# Experimental: The data shown in FIGS. 7A and 7B reflect VeriStrat testing on a subset of 96 patients from a larger study of about 160 patients. In this study, serum samples were taken from ovarian cancer patients before surgery and retrospectively analyzed with the VeriStrat test. After surgery, the patients were treated with carboplatin and paclitaxel.
# [3] = tested on: advanced non-small cell lung cancer (NSCLC); experiment: LCCC0512 study, gemcitabine arm, outcome by VeriStrat group; conditions: for median PFS: NSCLC patients treated with gemcitabine alone
# Experimental: The LCCC0512 study was a randomized phase II trial of first-line treatment with gemcitabine, erlotinib or the combination in elderly (over 70 years old) patients with advanced non-small cell lung cancer (NSCLC). Patients had stage IIIB or IV NSCLC and ECOG performance status of 0-2. Patients were randomized to receive either a maximum of 4 cycles of gemcitabine (1200 mg/m^2 days 1,8 every 21 days), 150 mg erlotinib daily, or a maximum of 4 cycles of gemcitabine (1000 mg/m^2 days 1,8 every 21 days) with concurrent 100 mg erlotinib daily. Primary endpoint was progression-free survival at 6 months. Patients randomized to receive gemcitabine monotherapy were encouraged to continue on study to receive erlotinib after progression. A total of 146 patients were enrolled. No significant differences in PFS or OS were found between treatment arms.
# Pretreatment serum or plasma samples from patients in the LCCC0512 trial were available for VeriStrat testing. 124 samples were received. Sixty four samples were classified as VeriStrat Good, 39 as VeriStrat Poor and 7 as Indeterminate (undefined/equivocal classification). Of the remaining samples 13 could not be processed due to hemolysis and data could not be collected from one sample. For 5 samples where VeriStrat testing was performed, the samples could not be matched to clinical data from the trial. This left 98 samples with VeriStrat classification of Good or Poor and clinical data for statistical analysis. The majority of the samples tested were plasma, but where plasma was not available for a few patients, serum samples were used. Of the samples on which VeriStrat testing yielded a result of Good or Poor only 5 were identified as serum.
# Survival analysis was carried out using SAS Enterprise Guide (SAS 9.2). Difference between groups was assessed using log-rank p values. Both univariate and multivariate hazard ratios were evaluated using Cox proportional hazard models. Kaplan-Meier plots and p values for contingency tables were generated using PRISM (GraphPad). For purposes of this disclosure, the data of interest pertain to the “gemcitabine” arm.
# [4] = between VeriStrat groups, gemcitabine alone
molecule,measurement,setting,value
CC(=O)O[C@@]12CO[C@@H]1C[C@H](O)[C@@]1(C)C(=O)[C@H](O)C3=C(C)[C@@H](OC(=O)[C@H](O)[C@@H](NC(=O)OC(C)(C)C)c4ccccc4)C[C@@](O)([C@@H](OC(=O)c4ccccc4)[C@H]21)C3(C)C [docetaxel],"hazard ratio, overall survival",[1],1.03
carboplatin and paclitaxel,median disease free survival time,[2]; VeriStrat Good patients,20 months
same,median overall survival time,[2]; VeriStrat Good patients,undefined
same,"Hazard Ratio, disease free survival","[2]; VeriStrat Good vs Poor, FIG. 7A",0.4906
same,"hazard ratio, overall survival","[2]; VeriStrat Good vs Poor, FIG. 7B",0.3061
same,median disease free survival time,[2]; VeriStrat Poor patients,11 months
same,median overall survival time,[2]; VeriStrat Poor patients,21 months
Nc1ccn([C@@H]2O[C@H](CO)[C@@H](O)C2(F)F)c(=O)n1 [gemcitabine],median PFS,[3]; VeriStrat Good group,133 days
same,median OS,"[3]; VeriStrat Good group, gemcitabine alone",201 days
same,median PFS,[3]; VeriStrat Poor group,137 days
same,median OS,"[3]; VeriStrat Poor group, gemcitabine alone",197 days
same,"hazard ratio (HR), OS by VeriStrat group",[3]; [4],0.82
same,"hazard ratio (HR), PFS by VeriStrat group",[3]; [4],1.21
